The results in this text go back to patent US11485744B2, “High penetration prodrug compositions of antimicrobials and antimicrobial-related compounds” (priority 2009, dated 2022).

The nature of data set [1]: Conversion of HPPs to parent drugs in human plasma (half life). Format: in vitro ADME. Conditions: for half-life at 9.1 mg/mL: pH 7.4. As to the method:
HPPs of antimicrobials or antimicrobial-related compounds converted to the parent antimicrobials or antimicrobial-related compounds quickly in good yield in human plasma.
A HPP of antimicrobial or antimicrobial-related compound (10 mg) was dissolved in 0.1 ml of 0.2M pH 7.4 phosphate buffer. 1 ml of human plasma, preheated to 37° C., was added into the mixture. The mixture was kept in a water bath at 37° C., and at every 2 min intervals 0.2 ml of samples were withdrawn and added to 0.4 ml of methanol to precipitate the plasma protein.

A short description of data set [2]: In vitro penetration across isolated human skin in modified Franz cells. How it is done: Penetration rates of HPPs and their parent drugs through human skin were measured in vitro by modified Franz cells. A Franz cell had two chambers, the top sample chamber and the bottom receiving chamber. The human skin tissue (360-400 μm thick) that separated the top and the receiving chambers was isolated from the anterior or posterior thigh areas.
A test compound (2 mL, 10% in 0.2 M phosphate buffer, pH 7.4) was added to the sample chamber of a Franz cell. The receiving chamber contained 10 ml of 0.2 M phosphate buffer which was stirred at 600 rpm. The amount of the tested compound penetrating the skin was determined by high-performance liquid chromatography (HPLC) method.

For data set [3] the following is noted: mouse, in vivo. How it is done: In vivo rates of penetration of HPPs of beta-lactam antibiotics through skin and blood-brain barrier of intact hairless mice were studied. […] After 2 hours, the mice were killed. 5 ml of methanol was added to 1 g of homogenized blood, liver, kidney, muscle, or brain. The samples were centrifuged for 5 min and analyzed by HPLC (Table 2).

Consider `C=CCSCC(=O)NC1C(=O)N2C1SC(C)(C)C2C(=O)OCCN(CC)CC.Cl` (stereo not drawn) [allylmercaptomethylpenicillinic acid 2-diethylaminoethyl ester hydrochloride], for which the “Half life of HPPs in plasma” value in data set [1] (human, plasma) is 8 ± 1 min.

Take `CCN(CC)CCOC(=O)C1=C(CSc2nnnn2C)CSC2C(NC(=O)C(NC(=O)N3CCN(CC)C(=O)C3=O)c3ccc(OC(C)=O)cc3)C(=O)N12.Cl` (stereo not drawn) [7-[[[[(4-ethyl-2,3-dioxo-1-piperazinyl)carbonyl]amino](4-acetoxyphenyl)acetyl]amino]-3-[[(1-methyl-1H-tetrazol-5-yl)thio]methyl]-8-oxo-5-thia-1-azabicyclo[4.2.0]oct-2-ene-2-carboxylic acid 2-diethylaminoethyl ester hydrochloride]: in data set [2] (human, 10 %, pH 7.4), the “In vitro Penetration Rate (apparent flux), HPPs” value was 0.57 ± 0.04 mg/cm^2/h. Also, the half-life at 9.1 mg/mL in data set [1] (human, plasma) was 12 min.

On to `CCN(CC)CCOC(=O)C1N2C(=O)C(NC(=O)[C@H](NC(=O)N3CCNC3=O)c3ccccc3)C2SC1(C)C.Cl` (stereo partly drawn) [D-α-[(imidazolidin-2-on-1-yl)carbonylamino]benzylpenicillin 2-diethylaminoethyl ester hydrochloride], for which, in data set [1] (human, plasma), the “Half life of HPPs in plasma” value is 9 ± 1 min.

`CCN(CC)CCOC(=O)C1=C(CSc2nnnn2C)CSC2C(NC(=O)C(O)c3ccccc3)C(=O)N12.Cl` (stereo not drawn) [7-[(hydroxyphenylacetyl)amino]-3-[[(1-methyl-1H-tetrazol-5-yl)thio]methyl]-8-oxo-5-thia-1-azabicyclo[4.2.0]oct-2-ene-2-carboxylic acid 2-diethylaminoethyl ester hydrochloride]: the “In vitro Penetration Rate (apparent flux), HPPs” value in data set [2] (human, 10 %, pH 7.4) amounted to 0.75 ± 0.05 mg/cm^2/h. Also, the half-life at 9.1 mg/mL in data set [1] (human, plasma) was 10 min.

Take `C=CC1=C(C(=O)OCCN(CC)CC)N2C(=O)C(NC(=O)/C(=N\OCC(=O)OCC)c3csc(NC(C)=O)n3)C2SC1.Cl` (stereo not drawn) [7-[2-(2-acetylamino-4-thiazolyl)-2-((Z)-ethoxycarbonylmethoxy)imino]acetamido]-3-(vinyl)-8-oxo-5-thia-1-azabicyclo[4.2.0]oct-2-ene-2-carboxylic acid 2-diethylaminoethyl ester hydrochloride]: in data set [2] (pH 7.4), the “In vitro Penetration Rate (apparent flux), HPPs” value is 0.58 ± 0.05 mg/cm^2/h. The “Half life of HPPs in plasma” value in data set [1] (human plasma, 37° C.) was found to be 9 ± 1 min.

In the case of `CCN(CC)CCOC(=O)C1=C(COC(N)=O)CSC2N1C(=O)C2(NC(=O)Cc1cccs1)OC.Cl` (stereo not drawn) [3-[[(aminocarbonyl)oxy]methyl]-7-methoxy-8-oxo-7-[(2-thienylacetyl)amino]-5-thia-1-azabicyclo[4.2.0]oct-2-ene-2-carboxylic acid 2-diethylaminoethyl ester hydrochloride], in data set [2] (human, 10 %, pH 7.4), the “In vitro Penetration Rate (apparent flux), HPPs” value was 0.61 ± 0.05 mg/cm^2/h. Moreover, the half-life at 9.1 mg/mL in data set [1] (human, plasma) was determined as 7 min.

Take “3-[[(aminocarbonyl)oxy]methyl]-7-[[2-furanyl(methoxyimino)acetyl]amino]-8-oxo-5-thia-1-azabicyclo[4.2.0]oct-2-ene-2-carboxylic acid 2-diethylaminoethyl ester hydrochloride”: the “In vitro Penetration Rate (apparent flux), HPPs” value in data set [2] (Table 1a, isolated human skin, Franz cells, 10% in 0.2 M phosphate buffer pH 7.4, n=5) is on record as 0.67 ± 0.04 mg/cm^2/h. Also, in data set [1] (human plasma, 37° C.), the “Half life of HPPs in plasma” value was 8 ± 1 min.

In the case of `CCOC(=O)Cn1nnnc1SCC1=C(C(=O)OCCN(CC)CC)N2C(=O)C(NC(=O)Cc3ccccc3CNC(C)=O)C2SC1.Cl` (stereo not drawn) [7-[[[2-(acetylaminomethyl)phenyl]acetyl]amino]-3-[[[1-(ethoxylcarbonylmethyl)-1H-tetrazol-5-yl]thio]methyl]-8-oxo-5-thia-1-azabicyclo[4.2.0]oct-2-ene-2-carboxylic acid 2-diethylaminoethyl ester hydrochloride], the “In vitro Penetration Rate (apparent flux), HPPs” value in data set [2] (human, 10 %, pH 7.4) was determined as 0.52 ± 0.04 mg/cm^2/h. Moreover, the half-life at 9.1 mg/mL in data set [1] (human, plasma) was found to be 9 min.

On to `CCN(CC)CCOC(=O)C1=C(COC(C)=O)CSC2C(NC(=O)Cc3cccs3)C(=O)N12.Cl` (stereo not drawn) [7-(2-thienylacetamido)cephalosporanic acid 2-diethylaminoethyl ester hydrochloride], for which the “In vitro Penetration Rate (apparent flux), HPPs” value in data set [2] (pH 7.4) is 0.62 ± 0.06 mg/cm^2/h. For the same molecule, the “Half life of HPPs in plasma” value in data set [1] (human plasma, 37° C.) stood at 9 ± 1 min.

On to `CCN(CC)CCOC(=O)C1N2C(=O)C(NC(=O)c3c(-c4c(Cl)cccc4Cl)noc3C)C2SC1(C)C.Cl` (stereo not drawn) [6-[3-(2,6-dichlorophenyl)-5-methyl-4-isoxazolecarboxamido]penicillinic acid 2-diethylaminoethyl ester hydrochloride], for which the “Half life of HPPs in plasma” value in data set [1] (human, plasma) amounted to 12 ± 1 min.

Turning to `Cc1onc(-c2ccccc2)c1C(=O)N[C@@H]1C(=O)N2[C@@H]1SC(C)(C)[C@@H]2C(=O)O` [Oxacillin, reference compound], the “In vitro Penetration Rate (apparent flux), Parent compounds” value in data set [2] (human, 10 %, pH 7.4) was under 0.001 mg/cm^2/h. The “drug detected in blood, liver, kidney, muscle or brain of mice treated with only the parent drug” value in data set [3] was “No drug was detected”.

As to `CCN(CC)CCOC(=O)C1N2C(=O)C(NC(=O)[C@H](NC(C)=O)c3ccccc3)C2SC1(C)C.Cl` (stereo partly drawn) [6-[D(−)-α-acetamidophenylacetamidopenicillinic acid 2-diethylaminoethyl ester hydrochloride], the “Half life of HPPs in plasma” value in data set [1] (human, plasma) is 10 ± 1 min.

On to `CCN(CC)CCOC(=O)C1N2C(=O)[C@@H](NC(=O)C(NC(=O)N3CCN(S(C)(=O)=O)C3=O)c3ccccc3)C2SC1(C)C.Cl` (stereo partly drawn) [6R-[2-[3-(methylsulfonyl)-2-oxo-1-imidazolidinecarboxamido]-2-phenylacetamido]penicillinic acid 2-diethylaminoethyl ester hydrochloride], for which the “Half life of HPPs in plasma” value in data set [1] (human, plasma) was 13 ± 1 min.

In the case of `CCN(CC)CCOC(=O)C1=C(COC)CSC2C(NC(=O)/C(=N\OC)c3csc(NC(C)=O)n3)C(=O)N12.Cl` (stereo not drawn) [7-[2-(2-acetylamino-4-thiazolyl)-2-((Z)-methoxyimino)acetamido]-3-(methoxymethyl)-8-oxo-5-thia-1-azabicyclo[4.2.0]oct-2-ene-2-carboxylic acid 2-diethylaminoethyl ester hydrochloride], the “In vitro Penetration Rate (apparent flux), HPPs” value in data set [2] (human, 10 %, pH 7.4) is listed as 0.51 ± 0.03 mg/cm^2/h. In data set [1] (human, plasma), the half-life at 9.1 mg/mL was 8 min.

In the case of `CCN(CC)CCOC(=O)C1=C(Cl)CSC2C(NC(=O)C(NC(C)=O)c3ccccc3)C(=O)N12.Cl` (stereo not drawn) [7-[(acetylaminophenylacetyl)amino]-3-chloro-8-oxo-5-thia-1-azabicyclo[4.2.0]oct-2-ene-2-carboxylic acid 2-diethylaminoethyl ester hydrochloride], in data set [2] (human, 10 %, pH 7.4), the “In vitro Penetration Rate (apparent flux), HPPs” value worked out at 0.71 ± 0.05 mg/cm^2/h. Moreover, the half-life at 9.1 mg/mL in data set [1] (human, plasma) turned out to be 8 min.

`C[C@]1(Cn2ccnn2)[C@H](C(=O)OCCN2CCCCC2)N2C(=O)C[C@H]2S1(=O)=O.Cl` [tazobactam-PEE, [2S-(2alpha,3beta,5alpha)]-3-Methyl-7-oxo-3-(1H-1,2,3-triazol-1-ylmethyl)-4-thia-1-azabicyclo[3.2.0]heptane-2-carboxylic acid 4,4-dioxide 1-piperidineethyl ester•HCl salt]: in data set [2] (pH 7.4), the “In vitro Penetration Rate (apparent flux), HPPs of beta-lactamases inhibitors” value is 0.32 ± 0.03 mg/cm^2/h.

With `COCC1=C(C(=O)OC(C)OC(=O)OC(C)C)N2C(=O)[C@@H](NC(=O)/C(=N\OC)c3csc(N)n3)[C@H]2SC1` (stereo partly drawn) [Cefpodoxime proxetil, reference compound], the “In vitro Penetration Rate (apparent flux), Parent compounds” value in data set [2] (human, 10 %, pH 7.4) is given as under 0.001 mg/cm^2/h.

Regarding `N[C@@H](C(=O)N[C@@H]1C(=O)N2C(C(=O)O)=C(Cl)CS[C@H]12)c1ccccc1` [Cefaclor, reference compound], in data set [2] (human, 10 %, pH 7.4), the “In vitro Penetration Rate (apparent flux), Parent compounds” value is under 0.016 mg/cm^2/h.

On to `CCN(CC)CCOC(=O)C1N2C(=O)C(NC(=O)[C@H](NC(=O)N3CCN(CC)C(=O)C3=O)c3ccccc3)C2SC1(C)C.Cl` (stereo partly drawn) [6-D(−)-α-(4-ethyl-2,3-dioxo-1-piperazinylcarbonylamino)-α-phenylacetamidopenicillinic acid 2-diethylaminoethyl ester hydrochloride], for which the “In vitro Penetration Rate (apparent flux), HPPs” value in data set [2] (pH 7.4) turned out to be 0.74 ± 0.08 mg/cm^2/h. Further, the “Half life of HPPs in plasma” value in data set [1] (human plasma, 37° C.) was determined as 15 ± 1 min.

For `CCN(CC)CCOC(=O)C1=C(COC(C)=O)CSC2C(NC(=O)C(=NOC)c3csc(NC(C)=O)n3)C(=O)N12.Cl` (stereo not drawn) [3-[(acetyloxy)methyl]-7-[[(2-acetylamino-4-thiazolyl)(methoxyimino)acetyl]amino]-8-oxo-5-thia-1-azabicyclo[4.2.0]oct-2-ene-2-carboxylic acid 2-diethylaminoethyl ester hydrochloride], the “In vitro Penetration Rate (apparent flux), HPPs” value in data set [2] (human, 10 %, pH 7.4) came to 0.73 ± 0.06 mg/cm^2/h. The half-life at 9.1 mg/mL in data set [1] (human, plasma) is 10 min.

For the molecule `O=C(O)[C@H]1/C(=C/CO)O[C@@H]2CC(=O)N21` [clavulanic acid, (2R,5R,Z)-3-(2-hydroxyethylidene)-7-oxo-4-oxa-1-aza-bicyclo[3.2.0]heptane-2-carboxylic acid, reference compound], in data set [2] (human, 10 %, pH 7.4), the “In vitro Penetration Rate (apparent flux), Parent compounds (beta-lactamases inhibitors)” value is listed as under 0.001 mg/cm^2/h.
